According to patent US20250144094A1 (Erasca, Inc., priority 2021, published 2025):

Biological target: Recombinant human ULK1 (1-649) (Homo sapiens (Human), UniProt O75385)
Experiment: ULK1 ADP Glo kinase activity assay, new method (ULKtide peptide substrate)
Conditions: 25° C., 40 minutes, read-out: ULK1 biochemical IC50
Method: Recombinant human ULK1 (1-649) protein expressed in Sf9 insect cells was obtained from SignalChem (Vancouver, BC), catalog #U01-11G. Active kinase was purified via N-terminal GST tag to >85% purity.
ADP GLO Kinase Assay Reagents were obtained from Promega Corp (Madison, WI), catalog #V9104.
Synthetic peptide substrate (ULKtide) with the amino acid sequence YANWLAASIYLDGKKK was obtained from ThermoFisher Scientific USA.
ULK1 inhibitor potency was determined using the luminescent ADP Glo Kinase Assay (Promega), a universal ADP detection system that measures kinase activity by quantifying the amount of ADP produced during a kinase reaction. ULK1 kinase reactions are performed in a standard 96-well microplate (20 μL reaction volume) at 25° C. for 40 minutes in the presence or absence of the test compound (12-point dilution series starting at 10 μM). Addition of peptide substrate and ATP initiates the kinase reaction.
The standard ADP Glo assay is performed in two steps. In step one, following the kinase reaction, an equal volume of ADP-Glo™ Reagent (20 μL) is added to terminate the kinase reaction and deplete the remaining ATP. In the second step, the Kinase Detection Reagent (10 μL) is added to simultaneously convert ADP to ATP and allow the newly synthesized ATP to be measured using a luciferase/luciferin reaction. Step two of the ADP Glo assay is performed in a white 384-well plate (20 μL final volume). Thirty minutes after the addition of the Detection reagent, light generated from the luciferase reaction is measured (1 second exposure) using a microplate compatible luminometer (CLARIOstar, BMG Labtech).
Inhibition of ULK1 kinase activity is determined for each test compound by comparison to DMSO only control wells. Inhibitor IC50 was calculated by plotting the change in luminescence after 30 minutes (response) versus inhibitor concentration (in log molar) then applying the four-parameter variable slope curve fit (GraphPad Prism). Inhibition of ULK1 in biochemical assay is found in Table 4.

Chain of Recombinant human ULK1 (1-649) (O75385 1-649): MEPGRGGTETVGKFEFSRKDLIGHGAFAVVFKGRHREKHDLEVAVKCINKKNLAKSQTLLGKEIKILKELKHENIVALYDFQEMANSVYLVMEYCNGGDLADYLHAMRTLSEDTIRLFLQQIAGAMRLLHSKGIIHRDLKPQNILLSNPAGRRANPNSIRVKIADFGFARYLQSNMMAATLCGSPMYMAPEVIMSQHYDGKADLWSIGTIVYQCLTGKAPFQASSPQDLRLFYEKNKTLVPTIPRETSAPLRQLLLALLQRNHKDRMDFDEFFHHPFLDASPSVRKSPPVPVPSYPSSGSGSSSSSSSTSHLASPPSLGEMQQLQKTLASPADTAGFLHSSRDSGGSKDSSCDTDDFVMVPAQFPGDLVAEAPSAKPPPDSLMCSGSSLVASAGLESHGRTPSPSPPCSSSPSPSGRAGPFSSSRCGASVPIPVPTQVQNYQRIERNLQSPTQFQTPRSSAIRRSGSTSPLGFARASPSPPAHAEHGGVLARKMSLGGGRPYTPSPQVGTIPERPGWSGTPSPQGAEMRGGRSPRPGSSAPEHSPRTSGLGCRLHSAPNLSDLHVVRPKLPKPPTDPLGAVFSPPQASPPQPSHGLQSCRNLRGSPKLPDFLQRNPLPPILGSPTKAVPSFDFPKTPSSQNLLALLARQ

Compound | IC50 [nM]
CN1CCS(=O)(=O)c2cc(-c3nc(Nc4cc5c(cc4Cl)CCNC5)ncc3C(F)(F)F)sc2C1=O [Example 159, 7-(2-((6-chloro-1,2,3,4-tetrahydroisoquinolin-7-yl)amino)-5-(trifluoromethyl)pyrimidin-4-yl)-4-methyl-3,4-dihydrothieno[2,3-f][1,4]thiazepin-5(2H)-one 1,1-dioxide] | ≤ 5
CCc1cc2c(cc1Nc1ncc(C(F)(F)F)c(-c3cc4c(s3)C(=O)N(C)CCS4(=O)=O)n1)CNC2 [Example 160, 7-(2-((6-ethylisoindolin-5-yl)amino)-5-(trifluoromethyl)pyrimidin-4-yl)-4-methyl-3,4-dihydrothieno[2,3-f][1,4]thiazepin-5(2H)-one 1,1-dioxide] | ≤ 5
CSc1cc2c(cc1Nc1ncc(C(F)(F)F)c(-c3cc4c(s3)C(=O)N(C)CCS4(=O)=O)n1)CCNC2 [Example 161, 4-methyl-7-(2-((7-(methylthio)-1,2,3,4-tetrahydroisoquinolin-6-yl)amino)-5-(trifluoromethyl)pyrimidin-4-yl)-3,4-dihydrothieno[2,3-f][1,4]thiazepin-5(2H)-one 1,1-dioxide] | ≤ 5
CCN1CCc2cc(Nc3ncc(C(F)(F)F)c(-c4cc5c(s4)C(=O)N(C)CCS5(=O)=O)n3)c(Cl)cc2C1 [Example 162, 7-(2-((7-chloro-2-ethyl-1,2,3,4-tetrahydroisoquinolin-6-yl)amino)-5-(trifluoromethyl)pyrimidin-4-yl)-4-methyl-3,4-dihydrothieno[2,3-f][1,4]thiazepin-5(2H)-one 1,1-dioxide] | ≤ 5
O=S1(=O)CCOCc2sc(-c3nc(Nc4cc5c(cc4Cl)CNCC5)ncc3C(F)(F)F)cc21 [Example 163, 7-(2-((7-chloro-1,2,3,4-tetrahydroisoquinolin-6-yl)amino)-5-(trifluoromethyl)pyrimidin-4-yl)-2,3-dihydro-5H-thieno[3,2-e][1,4]oxathiepine 1,1-dioxide] | ≤ 5
CN1CCS(=O)(=O)c2cc(-c3nc(Nc4cc5c(cc4Cl)CNC5)ncc3C(F)(F)F)sc2C1=O [Example 164, 7-(2-((6-chloroisoindolin-5-yl)amino)-5-(trifluoromethyl)pyrimidin-4-yl)-4-methyl-3,4-dihydrothieno[2,3-f][1,4]thiazepin-5(2H)-one 1,1-dioxide] | ≤ 5
Cc1nn(C2CCNCC2)cc1Nc1ncc(C(F)(F)F)c(-c2cc3c(s2)C(=O)NCCS3(=O)=O)n1 [Example 165, 7-(2-((3-methyl-1-(piperidin-4-yl)-1H-pyrazol-4-yl)amino)-5-(trifluoromethyl)pyrimidin-4-yl)-3,4-dihydrothieno[2,3-f][1,4]thiazepin-5(2H)-one 1,1-dioxide] | > 100
Cc1nn(C2CCNCC2)cc1Nc1ncc(C(F)(F)F)c(-c2cc3c(s2)C(=O)N(C)CCS3(=O)=O)n1 [Example 166, 4-methyl-7-(2-((3-methyl-1-(piperidin-4-yl)-1H-pyrazol-4-yl)amino)-5-(trifluoromethyl)pyrimidin-4-yl)-3,4-dihydrothieno[2,3-f][1,4]thiazepin-5(2H)-one 1,1-dioxide] | > 100
CN1CCc2cc(Nc3ncc(C(F)(F)F)c(-c4cc5c(s4)C(=O)N(C4CC4)CCS5(=O)=O)n3)c(Cl)cc2C1 [Example 167, 7-(2-((7-chloro-2-methyl-1,2,3,4-tetrahydroisoquinolin-6-yl)amino)-5-(trifluoromethyl)pyrimidin-4-yl)-4-cyclopropyl-3,4-dihydrothieno[2,3-f][1,4]thiazepin-5(2H)-one 1,1-dioxide] | ≤ 5
CN1CCc2cc(Nc3ncc(C(F)(F)F)c(-c4cc5c(s4)C(=O)N(C4CCC4)CCS5(=O)=O)n3)c(Cl)cc2C1 [Example 168, 7-(2-((7-chloro-2-methyl-1,2,3,4-tetrahydroisoquinolin-6-yl)amino)-5-(trifluoromethyl)pyrimidin-4-yl)-4-cyclobutyl-3,4-dihydrothieno[2,3-f][1,4]thiazepin-5(2H)-one 1,1-dioxide] | ≤ 5
CN1CCc2cc(Cl)c(Nc3ncc(C(F)(F)F)c(-c4cc5c(s4)C(=O)N(C)CCS5(=O)=O)n3)cc2C1 [Example 169] | ≤ 5
CN1CCS(=O)(=O)c2cc(-c3nc(Nc4ccc5c(c4C4CC4)CNC5)ncc3C(F)(F)F)sc2C1=O [Example 170, 7-(2-((4-cyclopropylisoindolin-5-yl)amino)-5-(trifluoromethyl)pyrimidin-4-yl)-4-methyl-3,4-dihydrothieno[2,3-f][1,4]thiazepin-5(2H)-one 1,1-dioxide] | 10 to 50
CSc1cc2c(cc1Nc1ncc(C(F)(F)F)c(-c3cc4c(s3)C(=O)N(C)CCS4(=O)=O)n1)CCN(C)C2 [Example 171, 4-methyl-7-(2-((2-methyl-7-(methylthio)-1,2,3,4-tetrahydroisoquinolin-6-yl)amino)-5-(trifluoromethyl)pyrimidin-4-yl)-3,4-dihydrothieno[2,3-f][1,4]thiazepin-5(2H)-one 1,1-dioxide] | ≤ 5
CN1CCS(=O)(=O)c2cc(-c3nc(Nc4cc5c(cc4C4CC4)CNCC5)ncc3C(F)(F)F)sc2C1=O [Example 173, 7-(2-((7-cyclopropyl-1,2,3,4-tetrahydroisoquinolin-6-yl)amino)-5-(trifluoromethyl)pyrimidin-4-yl)-4-methyl-3,4-dihydrothieno[2,3-f][1,4]thiazepin-5(2H)-one 1,1-dioxide] | ≤ 5
CCc1cc(N2CCNCC2)ccc1Nc1ncc(C(F)(F)F)c(-c2cc3c(s2)C(=O)N(C)CCS3(=O)=O)n1 [Example 174, 7-(2-((2-ethyl-4-(piperazin-1-yl)phenyl)amino)-5-(trifluoromethyl)pyrimidin-4-yl)-4-methyl-3,4-dihydrothieno[2,3-f][1,4]thiazepin-5(2H)-one 1,1-dioxide] | ≤ 5
CCc1cc2c(cc1Nc1ncc(C(F)(F)F)c(-c3cc4c(s3)C(=O)N(CC(F)(F)F)CCS4(=O)=O)n1)CCNC2 [Example 175, 7-(2-((7-ethyl-1,2,3,4-tetrahydroisoquinolin-6-yl)amino)-5-(trifluoromethyl)pyrimidin-4-yl)-4-(2,2,2-trifluoroethyl)-3,4-dihydrothieno[2,3-f][1,4]thiazepin-5(2H)-one 1,1-dioxide] | ≤ 5
Cc1c(Nc2ncc(C(F)(F)F)c(-c3cc4c(s3)C(=O)N(C)CCS4(=O)=O)n2)cnn1C1CCNCC1 [Example 176, 4-methyl-7-(2-((5-methyl-1-(piperidin-4-yl)-1H-pyrazol-4-yl)amino)-5-(trifluoromethyl)pyrimidin-4-yl)-3,4-dihydrothieno[2,3-f][1,4]thiazepin-5(2H)-one 1,1-dioxide] | > 100
CN1CCS(=O)(=O)c2cc(-c3nc(Nc4cc5c(cc4C4CC4)CNC5)ncc3C(F)(F)F)sc2C1=O [Example 177, 7-(2-((6-cyclopropylisoindolin-5-yl)amino)-5-(trifluoromethyl)pyrimidin-4-yl)-4-methyl-3,4-dihydrothieno[2,3-f][1,4]thiazepin-5(2H)-one 1,1-dioxide] | ≤ 5
Cc1c(Nc2ncc(C(F)(F)F)c(-c3cc4c(s3)C(=O)NCCS4(=O)=O)n2)cnn1C1CCNCC1 [Example 178, 7-(2-((5-methyl-1-(piperidin-4-yl)-1H-pyrazol-4-yl)amino)-5-(trifluoromethyl)pyrimidin-4-yl)-3,4-dihydrothieno[2,3-f][1,4]thiazepin-5(2H)-one 1,1-dioxide] | > 100
O=C1NCCS(=O)(=O)c2cc(-c3nc(Nc4cc5c(cc4Cl)CNC5)ncc3C(F)(F)F)sc21 [Example 180, 7-(2-((6-chloroisoindolin-5-yl)amino)-5-(trifluoromethyl)pyrimidin-4-yl)-3,4-dihydrothieno[2,3-f][1,4]thiazepin-5(2H)-one 1,1-dioxide] | ≤ 5
CN1Cc2cc(Cl)c(Nc3ncc(C(F)(F)F)c(-c4cc5c(s4)C(=O)N(C)CCS5(=O)=O)n3)cc2C1 [Example 181, 7-(2-((6-chloro-2-methylisoindolin-5-yl)amino)-5-(trifluoromethyl)pyrimidin-4-yl)-4-methyl-3,4-dihydrothieno[2,3-f][1,4]thiazepin-5(2H)-one 1,1-dioxide] | ≤ 5
Cc1nn(C2CCN(C)CC2)cc1Nc1ncc(C(F)(F)F)c(-c2cc3c(s2)C(=O)NCCS3(=O)=O)n1 [Example 182, 7-(2-((3-methyl-1-(1-methylpiperidin-4-yl)-1H-pyrazol-4-yl)amino)-5-(trifluoromethyl)pyrimidin-4-yl)-3,4-dihydrothieno[2,3-f][1,4]thiazepin-5(2H)-one 1,1-dioxide] | > 100
Cc1nn(C2CCN(C)CC2)cc1Nc1ncc(C(F)(F)F)c(-c2cc3c(s2)C(=O)N(C)CCS3(=O)=O)n1 [Example 183, 4-methyl-7-(2-((3-methyl-1-(1-methylpiperidin-4-yl)-1H-pyrazol-4-yl)amino)-5-(trifluoromethyl)pyrimidin-4-yl)-3,4-dihydrothieno[2,3-f][1,4]thiazepin-5(2H)-one 1,1-dioxide] | > 100
